From patent US12162872B2, “Cycloalkylurea derivative” (Sumitomo Pharma Co., Ltd., priority 2019, dated 2024)

Target: T1, Human orexin receptor type 2 (Homo sapiens, UniProt O43614)
T1 construct: expressed in transfected cells; host or cells: CHO cells (transient expression)
T1 sequence (O43614 1-444): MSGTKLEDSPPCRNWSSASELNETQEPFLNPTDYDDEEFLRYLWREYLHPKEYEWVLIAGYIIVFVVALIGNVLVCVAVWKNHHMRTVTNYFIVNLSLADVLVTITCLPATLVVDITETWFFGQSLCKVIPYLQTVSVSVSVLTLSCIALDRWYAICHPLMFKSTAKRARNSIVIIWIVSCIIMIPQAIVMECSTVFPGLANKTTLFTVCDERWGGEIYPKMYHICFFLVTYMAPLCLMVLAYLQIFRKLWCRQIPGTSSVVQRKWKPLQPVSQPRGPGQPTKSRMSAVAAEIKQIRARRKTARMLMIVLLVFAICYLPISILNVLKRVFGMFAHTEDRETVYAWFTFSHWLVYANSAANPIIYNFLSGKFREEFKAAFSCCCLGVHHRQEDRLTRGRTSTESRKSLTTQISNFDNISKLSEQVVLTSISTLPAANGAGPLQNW
Assay: Test 1: Evaluation of agonist activity for orexin receptor type 2 (aequorin luminescence, intracellular calcium mobilization in CHO cells)
Type: cell-based
Settings: relative percentage of luminescence for the luminescence (100%) of Orexin A (100 pM); CHO cells transiently expressing human orexin receptor type 2 and apoaequorin; Orexin A Lot. 641114
Description: Test 1: Evaluation of Agonist Activity for Orexin Receptor Type 2
Human orexin receptor type 2 and apoaequorin were transiently expressed in CHO cells, and the agonist activity was evaluated based on intracellular calcium mobilization with ligand stimulation. The CHO cells transiently-expressed human orexin receptor type 2 and apoaequorin were seeded on a 384-well plate by 2,000 cells/well, and then incubated for 16-22 hours. After the plate was returned to room temperature, Coelenterazine hcp (final concentration: 1 μM) was added to the plate, and the plate was allowed to stand at room temperature for 2 hours. And then, Orexin A (PEPTIDE INSTITUTE, INC., Lot. 641114) or each test compound was added to the plate, and the luminescence of the cells was measured with FDSS7000 (Hamamatsu Photonics K.K.), wherein Orexin A and each test compound were dissolved in DMSO (final concentration: 0.1%), and diluted with a buffer (Hanks, 20 mM HEPES, 0.1% BSA). The agonist activity of each test compound for orexin receptor type 2 was calculated as relative percentage of luminescence for the luminescence (100%) of Orexin A (100 pM).

Row | Structure (SMILES) | agonist activity (%)
1 | Cc1ccc(C2CCN(C(=O)N[C@H]3CCCC[C@@H]3N3CCN(C(C)C)CC3)CC2)cc1 (racemic) [Example 1, rac-4-(4-Methylphenyl)-N-{(1S,2S)-2-[4-(propan-2-yl)piperazin-1-yl]cyclohexyl}piperidine-1-carboxamide] | 137
2 | CCN1CCN([C@H]2CCCC[C@H]2NC(=O)N2CCC(c3ccc(C)cc3)CC2)CC1 (racemic) [Example 2, rac-N-[(1R,2S)-2-(4-ethylpiperazin-1-yl)cyclohexyl]-4-(4-methylphenyl)piperidine-1-carboxamide] | 58
3 | Cc1nc(C2(C)CCN(C(=O)N[C@H]3CCCC[C@@H]3N3CCN(C(C)C)CC3)CC2)no1 (racemic) [Example 3, rac-4-methyl-4-(5-methyl-1,2,4-oxadiazol-3-yl)-N-{(1S,2S)-2-[4-(propan-2-yl)piperazin-1-yl]cyclohexyl}piperidine-1-carboxamide] | 67
4 | CO[C@H]1CCC[C@H](N2CCN(C(C)C)CC2)[C@H]1NC(=O)N1CCC(c2ccc(C)cc2)CC1 (racemic) [Example 4, rac-N-{(1R,2S,6S)-2-methoxy-6-[4-(propan-2-yl)piperazin-1-yl]cyclohexyl}-4-(4-methylphenyl)piperidine-1-carboxamide] | 62
5 | Cc1ccc(C2CCN(C(=O)N[C@H]3CCC[C@@H]3N3CCN(C(C)C)CC3)CC2)cc1 (racemic) [Example 5, rac-4-(4-methylphenyl)-N-{(1S,2S)-2-[4-(propan-2-yl)piperazin-1-yl]cyclopentyl}piperidine-1-carboxamide] | 103
6 | CC(C)N1CCN([C@H]2CCC[C@@H]2NC(=O)N2CCC(C)(c3cc(C4CC4)on3)CC2)CC1 (racemic) [Example 6, rac-4-(5-cyclopropyl-1,2-oxazol-3-yl)-4-methyl-N-{(1S,2S)-2-[4-(propan-2-yl)piperazin-1-yl]cyclopentyl}piperidine-1-carboxamide] | 43
7 | CC(C)N1CCN([C@H]2[C@H](NC(=O)N3CCC(C)(c4noc(C5CC5)n4)CC3)CCCC2(F)F)CC1 (racemic) [Example 7, rac-4-(5-cyclopropyl-1,2,4-oxadiazol-3-yl)-N-{(1R,2S)-3,3-difluoro-2-[4-(propan-2-yl)piperazin-1-yl]cyclohexyl}-4-methylpiperidine-1-carboxamide] | 75
8 | Cc1ccc(C2CCN(C(=O)N[C@@H]3[C@@H](N4CCN(C(C)C)CC4)CCCC3(F)F)CC2)cc1 (racemic) [Example 8, rac-N-{(1R,6S)-2,2-difluoro-6-[4-(propan-2-yl)piperazin-1-yl]cyclohexyl}-4-(4-methylphenyl)piperidine-1-carboxamide] | 207
9 | CC(C)N1CCN([C@H]2CCCC(F)(F)[C@@H]2OC(=O)N2CCC(C)(c3noc(C4CC4)n3)CC2)CC1 (racemic) [Example 9, rac-(1R,6S)-2,2-difluoro-6-[4-(propan-2-yl)piperazin-1-yl]cyclohexyl 4-(5-cyclopropyl-1,2,4-oxadiazol-3-yl)-4-methylpiperidine-1-carboxylate] | 207
10 | Cc1nc(C2(C)CCN(C(=O)O[C@@H]3[C@@H](N4CCN(C(C)C)CC4)CCCC3(F)F)CC2)no1 (racemic) [Example 10, rac-(1R,6S)-2,2-difluoro-6-[4-(propan-2-yl)piperazin-1-yl]cyclohexyl 4-methyl-4-(5-methyl-1,2,4-oxadiazol-3-yl)piperidine-1-carboxylate] | 213
11 | CC(C)N1CCN([C@H]2CCCC(F)(F)[C@@H]2OC(=O)N2CCC(C)(c3cc(C4CC4)on3)CC2)CC1 (racemic) [Example 11, rac-(1R,6S)-2,2-difluoro-6-[4-(propan-2-yl)piperazin-1-yl]cyclohexyl 4-(5-cyclopropyl-1,2-oxazol-3-yl)-4-methylpiperidine-1-carboxylate] | 211
12 | CC(C)N1CCN([C@H]2CCCC(F)(F)[C@@H]2OC(=O)N2CCC(C)(c3ncn(C4CC4)n3)CC2)CC1 (racemic) [Example 13, rac-(1R,6S)-2,2-difluoro-6-[4-(propan-2-yl)piperazin-1-yl]cyclohexyl 4-(1-cyclopropyl-1H-1,2,4-triazol-3-yl)-4-methylpiperidine-1-carboxylate] | 56

Target: T1, Human orexin receptor type 2
Assay: Test 2: Evaluation of agonist activity for orexin receptor type 2 (aequorin luminescence, intracellular calcium mobilization in CHO cells)
Type: cell-based
Settings: relative percentage of luminescence for the luminescence (100%) of Orexin A (100 pM); CHO cells transiently expressing human orexin receptor type 2 and apoaequorin; Orexin A Lot. 671009
Method in brief: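 CHO cells transiently co-expressing the receptor and apoaequorin, incubated 16–22 h, were loaded 2 h at room temperature with 1 μM coelenterazine hcp (final). Compounds in Hanks/20 mM HEPES/0.1% BSA (0.1% DMSO final) were added and the calcium luminescence was read and expressed as % of Orexin A (100 pM).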

Row | Structure (SMILES) | agonist activity (%)
13 | CC(C)N1CCN(C(=O)O[C@H]2CCCC(F)(F)[C@@H]2NC(=O)N2CCC(C)(c3noc([C@@H]4C[C@@H]4F)n3)CC2)CC1 [Example 153, (1S,2R)-3,3-difluoro-2-[(4-{5-[(1S,2S)-2-fluorocyclopropyl]-1,2,4-oxadiazol-3-yl}-4-methylpiperidine-1-carbonyl)amino]cyclohexyl 4-(propan-2-yl)piperazine-1-carboxylate] | 350
14 | CC(C)N1CCC(S[C@H]2CCCC(F)(F)[C@@H]2NC(=O)N2CCC(C)(c3noc([C@@H]4C[C@@H]4F)n3)CC2)CC1 [Example 154, N-[(1S,6S)-2,2-difluoro-6-{[1-(propan-2-yl)piperidin-4-yl]sulfanyl}cyclohexyl]-4-{5-[(1S,2S)-2-fluorocyclopropyl]-1,2,4-oxadiazol-3-yl}-4-methylpiperidine-1-carboxamide] | 493
15 | CC(C)N1CCC(S(=O)(=O)[C@H]2CCCC(F)(F)[C@@H]2NC(=O)N2CCC(C)(c3noc([C@@H]4C[C@@H]4F)n3)CC2)CC1 [Example 155, N-{(1S,6S)-2,2-difluoro-6-[1-(propan-2-yl)piperidine-4-sulfonyl]cyclohexyl}-4-{5-[(1S,2S)-2-fluorocyclopropyl]-1,2,4-oxadiazol-3-yl}-4-methylpiperidine-1-carboxamide] | 167
16 | CC(C)N1CCN([C@H]2CCC[C@H](F)[C@@H]2NC(=O)N2CCC(C)(c3noc([C@@H]4C[C@@H]4F)n3)CC2)CC1 [Example 156] | 323
17 | CC(C)CN(C)C1CCN([C@H]2CCCC(F)(F)[C@@H]2NC(=O)N2CCC(C)(c3noc([C@@H]4C[C@@H]4F)n3)CC2)CC1 [Example 157, N-[(1R,6S)-2,2-difluoro-6-{4-[methyl(2-methylpropyl)amino]piperidin-1-yl}cyclohexyl]-4-{5-[(1S,2S)-2-fluorocyclopropyl]-1,2,4-oxadiazol-3-yl}-4-methylpiperidine-1-carboxamide] | 392
18 | CN(CC1CC1)C1CCN([C@H]2CCCC(F)(F)[C@@H]2NC(=O)N2CCC(C)(c3noc([C@@H]4C[C@@H]4F)n3)CC2)CC1 [Example 158, N-[(1R,6S)-6-{4-[(cyclopropylmethyl)(methyl)amino]piperidin-1-yl}-2,2-difluorocyclohexyl]-4-{5-[(1S,2S)-2-fluorocyclopropyl]-1,2,4-oxadiazol-3-yl}-4-methylpiperidine-1-carboxamide] | 389
19 | CN(C1CCC1)C1CCN([C@H]2CCCC(F)(F)[C@@H]2NC(=O)N2CCC(C)(c3noc([C@@H]4C[C@@H]4F)n3)CC2)CC1 [Example 159, N-[(1R,6S)-6-{4-[cyclobutyl(methyl)amino]piperidin-1-yl}-2,2-difluorocyclohexyl]-4-{5-[(1S,2S)-2-fluorocyclopropyl]-1,2,4-oxadiazol-3-yl}-4-methylpiperidine-1-carboxamide] | 392
20 | CCN(C)C1CCN([C@H]2CCCC(F)(F)[C@@H]2NC(=O)N2CCC(C)(c3noc([C@@H]4C[C@@H]4F)n3)CC2)CC1 [Example 160, N-[(1R,6S)-6-{4-[ethyl(methyl)amino]piperidin-1-yl}-2,2-difluorocyclohexyl]-4-{5-[(1S,2S)-2-fluorocyclopropyl]-1,2,4-oxadiazol-3-yl}-4-methylpiperidine-1-carboxamide] | 410
21 | CC(C)N1CC[C@H](N[C@H]2CCCC(F)(F)[C@@H]2NC(=O)N2CCC(C)(c3noc([C@@H]4C[C@@H]4F)n3)CC2)C1 [Example 161, N-[(1R,6S)-2,2-Difluoro-6-{[(3S)-1-(propan-2-yl)pyrrolidin-3-yl]amino}cyclohexyl]-4-{5-[(1S,2S)-2-fluorocyclopropyl]-1,2,4-oxadiazol-3-yl}-4-methylpiperidine-1-carboxamide] | 374
